Among the test systems are CAKI-1 renal; BT-549 breast; HOP-62 NSCLC; LOX IMVI melanoma; COLO 205 colon; HOP-92 NSCLC; HCT-15 colon; SF-268 CNS; NCI-H226 lung; SK-OV-3 ovarian.
Assay in all cases: inhibition of tumour cell growth, NCI panel, 48 h

“And” between values parts separate entries of the source, which are not always exact repeats. Identical values can stand only once.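 96-well plates; 48 h exposure; 5 concentrations. Endpoints by linear interpolation between flanking doses. Not reached: highest tested concentration assigned. The concentration for 50% growth inhibition is given as GI50. Definition used: TGI = concentration required for complete inhibition of growth.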

With `Cc1cccc2c(=O)c3c(sc12)c(NCCCN)nc1ccccc13`, the GI50 with CAKI-1 renal is 1.18 µM; in the test on BT-549 breast it was 2.6 µM; in the test on HOP-62 NSCLC, 1.24 µM; in the test with LOX IMVI melanoma it was 1.46 µM; in the test with COLO 205 colon, 1.56 µM; in the test with HOP-92 NSCLC, 1.53 µM. Further, the GI50 in the test on HCT-15 colon is 1.35 µM; in the test on SF-268 CNS it was 1.53 µM. The TGI in the test on CAKI-1 renal was found to be 2.47 µM; in the test on BT-549 breast it was 12.6 µM; in the test on HOP-62 NSCLC it was 2.79 µM; with LOX IMVI melanoma, 2.98 µM; in the test with COLO 205 colon, 3.23 µM; in the test on HOP-92 NSCLC, 5.12 µM. For the same compound, the TGI with HCT-15 colon was 2.84 µM; in the test on SF-268 CNS it was 3.17 µM.

As for `O=C1CC=C2C3CC4N(CCC45c4ccccc4N1C25)C/C3=C\CO` (centres undefined), the TGI in the test on NCI-H226 lung, with CAKI-1 renal, in the test with BT-549 breast, in the test on LOX IMVI melanoma, in the test on SK-OV-3 ovarian and in the test with COLO 205 colon was over 100 µM each time. In addition, the TGI in the test on HOP-92 NSCLC, in the test on HCT-15 colon and in the test on SF-268 CNS was over 100 µM in each case.

`COC(=O)[C@@H](C)C[C@H](Cc1ccccc1)NC(=O)c1csc([C@@H](C[C@H](C(C)C)N(C)C(=O)[C@@H](NC(=O)[C@H]2CCCCN2C)c2ccc(F)cc2)OC(C)=O)n1`: the TGI with BT-549 breast was 0.0853 µM and 0.661 µM; in the test with HOP-62 NSCLC it was 25 µM and 40.4 µM; in the test with LOX IMVI melanoma, 6.71 µM and 20.8 µM; in the test with SK-OV-3 ovarian it was 25 µM and > 100 µM; in the test on COLO 205 colon, 0.127 µM and 0.526 µM; in the test with HCT-15 colon, 25 µM and > 100 µM. Besides, in the test with SF-268 CNS, the TGI was 25 µM and > 100 µM. Also, the GI50 in the test on COLO 205 colon is 0.0113 µM and 0.0379 µM.

For the compound `CCCCCCCCCCCCCCCCCC1=NC(C)(C)CN1C(C)(C)CO`, the GI50 in the test on NCI-H226 lung is 2.14 µM; with CAKI-1 renal, 1.6 µM; in the test on BT-549 breast it was 3.28 µM; in the test on HOP-62 NSCLC, 1.72 µM; in the test with SK-OV-3 ovarian it was 1.84 µM; in the test on COLO 205 colon, 0.407 µM. The GI50 in the test on HOP-92 NSCLC was 0.85 µM; in the test with HCT-15 colon it was 1.38 µM; with SF-268 CNS, 1.54 µM. Also, the TGI in the test on NCI-H226 lung was found to be 4.06 µM; in the test with CAKI-1 renal, 3.9 µM; with BT-549 breast, 14 µM; in the test with HOP-62 NSCLC, 3.19 µM; in the test with SK-OV-3 ovarian, 3.51 µM; with COLO 205 colon, 1.38 µM. The figures for the TGI with HOP-92 NSCLC, with HCT-15 colon and in the test on SF-268 CNS were 3.37 µM, 3.16 µM and 3.02 µM, respectively.

With `O=C(Nc1ccc(Cl)cc1)c1cc(NCc2cc(O)ccc2O)ccc1O`, the GI50 in the test with CAKI-1 renal is 4.09 µM; in the test with BT-549 breast it was 1.42 µM; with HOP-62 NSCLC it was 22 µM; in the test on LOX IMVI melanoma it was 4.1 µM; in the test on SK-OV-3 ovarian, 25 µM; in the test with COLO 205 colon, 5.29 µM. In addition, the GI50 was 1.81 µM in the test on HCT-15 colon and 3.04 µM in the test on SF-268 CNS. Also, the TGI in the test with CAKI-1 renal is 18.2 µM; with BT-549 breast it was 3.57 µM; in the test with HOP-62 NSCLC, 51.7 µM; with LOX IMVI melanoma it was 23.1 µM; in the test with SK-OV-3 ovarian, 60.7 µM; in the test with COLO 205 colon it was 28.5 µM. Further, the figures for the TGI with HCT-15 colon and in the test on SF-268 CNS were 6.01 µM and 14 µM, respectively.

Regarding `O=c1cc(-c2ccccc2)oc2c(O)c(O)ccc12`, the GI50 in the test on NCI-H226 lung is 21 µM; in the test with CAKI-1 renal it was 7.18 µM; with BT-549 breast, 8.36 µM; with HOP-62 NSCLC it was 7.08 µM; with LOX IMVI melanoma it was 9.58 µM; with SK-OV-3 ovarian, 23.8 µM. Further, the GI50 in the test with COLO 205 colon is 18.3 µM; with HCT-15 colon it was 5.45 µM; with SF-268 CNS, 6.4 µM. The TGI was over 100 µM in the test with NCI-H226 lung; 61.2 µM with CAKI-1 renal; 42.3 µM in the test on BT-549 breast; over 100 µM in the test with HOP-62 NSCLC; over 100 µM in the test on LOX IMVI melanoma; over 100 µM in the test with SK-OV-3 ovarian. For the same compound, the TGI in the test on COLO 205 colon is 53.9 µM; in the test with HCT-15 colon, over 100 µM; with SF-268 CNS, over 100 µM.

As to `CO[C@H]1/C=C/O[C@@]2(C)Oc3c(C)c(O)c4c(O)c(c(/C=N/N5C(C)CN(Cc6ccc(C#N)cc6)CC5C)c(O)c4c3C2=O)NC(=O)/C(C)=C\C=C\[C@H](C)[C@H](O)[C@@H](C)[C@@H](O)[C@@H](C)[C@H](OC(C)=O)[C@@H]1C` (some centres undefined), the GI50 in the test with NCI-H226 lung is 6.06 µM; in the test on CAKI-1 renal it was 7.65 µM; in the test on BT-549 breast it was 8.85 µM; with HOP-62 NSCLC it was 9.76 µM; in the test with LOX IMVI melanoma, 6.84 µM; in the test with SK-OV-3 ovarian it was 9.55 µM. The GI50 in the test on COLO 205 colon was 6.82 µM; in the test on HCT-15 colon, 6.01 µM; with SF-268 CNS, 9.58 µM. In addition, the TGI in the test on NCI-H226 lung was determined as 12.9 µM; with CAKI-1 renal, 17.8 µM; with BT-549 breast it was 23.5 µM; with HOP-62 NSCLC, 20.6 µM; with LOX IMVI melanoma, 13.4 µM; in the test with SK-OV-3 ovarian, 23.4 µM. The TGI with COLO 205 colon was 16.4 µM; in the test on HCT-15 colon it was 14 µM; in the test with SF-268 CNS it was 24.1 µM.

Take `NC(CCl)=NCC12CC3CC(CC(C3)C1)C2`: the GI50 in the test on NCI-H226 lung is 1.43 µM; in the test on CAKI-1 renal it was 0.426 µM; in the test on BT-549 breast it was 2.43 µM; with HOP-62 NSCLC it was 0.796 µM; in the test on LOX IMVI melanoma it was 0.805 µM; with SK-OV-3 ovarian it was 4.1 µM. For the same compound, the GI50 in the test on COLO 205 colon is 1.15 µM; with HCT-15 colon, 0.807 µM; in the test with SF-268 CNS, 1.9 µM. Besides, the TGI with NCI-H226 lung was determined as 11.3 µM; with CAKI-1 renal it was 2.48 µM; with BT-549 breast it was 14.2 µM; in the test with HOP-62 NSCLC, 11.4 µM; with LOX IMVI melanoma it was 2.67 µM; in the test with SK-OV-3 ovarian it was 16.7 µM. The TGI was found to be 3.19 µM in the test on COLO 205 colon, 13.7 µM in the test on HCT-15 colon and 12.1 µM with SF-268 CNS.

As to `COc1ccc(-c2c(NC(=O)Nc3ccc(Cl)c(C(F)(F)F)c3)cnn2-c2ccc(S(N)(=O)=O)cc2)cc1`, the GI50 in the test on NCI-H226 lung was 3.23 µM; in the test on BT-549 breast, 1.81 µM; with HOP-62 NSCLC it was 4.07 µM; with LOX IMVI melanoma, 2.75 µM; in the test with SK-OV-3 ovarian, 3.69 µM; with COLO 205 colon it was 2.31 µM. For the same compound, the GI50 with HOP-92 NSCLC is 2.02 µM; in the test on HCT-15 colon, 3.63 µM; with SF-268 CNS, 3.34 µM. Also, the TGI in the test on NCI-H226 lung amounted to 14.6 µM; in the test with BT-549 breast, 4.4 µM; with HOP-62 NSCLC, 16.1 µM; in the test with LOX IMVI melanoma, 8.36 µM; in the test on SK-OV-3 ovarian, 14 µM; with COLO 205 colon, 5.31 µM. For the same compound, the TGI with HOP-92 NSCLC amounted to 7.32 µM; in the test with HCT-15 colon it was 14.4 µM; with SF-268 CNS, 14.7 µM.

(Values after PubChem BioAssay (NCI).)
